Source: ChEMBL document CHEMBL1201862, “PubChem BioAssay data set” (2004)
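Results reflect a 48-hour exposure of cells in 96-well plates to compound at five concentrations. Abbreviation: GI50, concentration required for 50% inhibition of growth.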 Active and inactive are the calls of the source. Cut-off read from the data, not from the text of the source: active = GI50 up to about 1.1 µM and inactive = higher.

Columns and labels:
Experiment in all cases: NCI anticancer screen, dose series, 48 h
A549 = test system: A549
CCRF-CEM = test system: CCRF-CEM
COLO 205 = test system: COLO 205
EKVX = test system: EKVX
HL-60 = test system: HL-60
HT-29 = test system: HT-29
KM12 = test system: KM12
MDA-MB-435 = test system: MDA-MB-435
NCI-H226 = test system: NCI-H226
NCI-H460 = test system: NCI-H460
NCI/ADR-RES = test system: NCI/ADR-RES
OVCAR-4 = test system: OVCAR-4
OVCAR-8 = test system: OVCAR-8
RPMI-8226 = test system: RPMI-8226
SF-539 = test system: SF-539
SR = test system: SR
T47D = test system: T47D
TK-10 = test system: TK-10
UACC-62 = test system: UACC-62
UO-31 = test system: UO-31

Measured: GI50

CN(C)c1nc(N)nc(CS)n1
inactive: A549 51.3 µM | CCRF-CEM 25.5 µM | COLO 205 > 100 µM | EKVX > 100 µM | HL-60 23.3 µM | HT-29 > 100 µM | KM12 > 100 µM | MDA-MB-435 > 100 µM | NCI-H226 > 100 µM | NCI-H460 46 µM | NCI/ADR-RES > 100 µM | OVCAR-4 80.7 µM | OVCAR-8 > 100 µM | RPMI-8226 96.2 µM | SF-539 > 100 µM | SR 37.2 µM | T47D > 100 µM | TK-10 > 100 µM | UACC-62 61.4 µM | UO-31 > 100 µM

O=CC1C(Cl)=Nc2nc3ccccc3n2C1c1ccc([N+](=O)[O-])cc1 (stereo not drawn)
inactive: A549 25.2 µM | CCRF-CEM 3.11 µM | COLO 205 3.14 µM | EKVX 24.1 µM | HL-60 3.28 µM | KM12 24.8 µM | MDA-MB-435 4.81 µM | NCI-H226 3.33 µM | NCI-H460 31.1 µM | NCI/ADR-RES 40.5 µM | OVCAR-4 13.6 µM | OVCAR-8 3.95 µM | RPMI-8226 3.77 µM | SF-539 20.2 µM | SR 2.16 µM | T47D 1.57 µM | TK-10 4.54 µM | UACC-62 16.3 µM | UO-31 3.88 µM

CCNC1=C(NC(=O)c2ccc(OC)cc2)C(=O)c2ccccc2C1=O
inactive: A549 70.3 µM | CCRF-CEM 48.3 µM | COLO 205 37 µM | EKVX > 100 µM | HL-60 51.6 µM | HT-29 23.4 µM | KM12 49.9 µM | MDA-MB-435 16.8 µM | NCI-H226 > 100 µM | NCI-H460 56.5 µM | NCI/ADR-RES 29 µM | OVCAR-4 34.7 µM | OVCAR-8 24.6 µM | RPMI-8226 > 100 µM | SF-539 56.8 µM | SR 56.5 µM | T47D 66.1 µM | TK-10 > 100 µM | UACC-62 39.4 µM

CCOC(=O)/C1=C(\C)N(c2ccc(C)cc2)C(=O)c2ccccc2C(=O)c2c(OC(C)=O)ccc(OC(C)=O)c21
inactive: A549 26.8 µM | CCRF-CEM 10.8 µM | COLO 205 13.5 µM | HL-60 20 µM | HT-29 14.6 µM | KM12 15 µM | MDA-MB-435 15.3 µM | NCI-H226 14.6 µM | NCI-H460 18.3 µM | NCI/ADR-RES 19.2 µM | OVCAR-4 12.8 µM | OVCAR-8 36.8 µM | RPMI-8226 13.8 µM | SF-539 25.8 µM | SR 15.8 µM | T47D 13.7 µM | TK-10 19.3 µM | UACC-62 15 µM | UO-31 38.5 µM

CN1CCc2c(sc3ncn(N)c(=N)c23)C1
inactive: A549 > 100 µM | CCRF-CEM 36.1 µM | EKVX > 100 µM | HL-60 > 100 µM | HT-29 > 100 µM | KM12 > 100 µM | MDA-MB-435 > 100 µM | NCI-H226 78.9 µM | NCI-H460 > 100 µM | NCI/ADR-RES > 100 µM | OVCAR-4 > 100 µM | OVCAR-8 > 100 µM | RPMI-8226 > 100 µM | SF-539 > 100 µM | SR 63.8 µM | T47D > 100 µM | TK-10 > 100 µM | UACC-62 > 100 µM

COc1c(C)c2nc3ccccc3nc2c2c(O)ccnc12
inactive: A549 37.1 µM | CCRF-CEM > 100 µM | COLO 205 46.1 µM | EKVX > 100 µM | HL-60 > 100 µM | HT-29 69.7 µM | KM12 > 100 µM | MDA-MB-435 > 100 µM | NCI-H226 > 100 µM | NCI-H460 53.5 µM | NCI/ADR-RES > 100 µM | OVCAR-4 > 100 µM | OVCAR-8 50.5 µM | RPMI-8226 > 100 µM | SF-539 54.2 µM | SR > 100 µM | T47D 6.64 µM | TK-10 64.4 µM | UO-31 > 100 µM

CC(=O)OC1CC2c3cccc4c3C(CC2N(C)C1=O)CN4C(=O)c1ccccc1 (stereo not drawn)
inactive: A549 17.5 µM | CCRF-CEM 20.7 µM | COLO 205 23.3 µM | EKVX 22.1 µM | HL-60 15.2 µM | HT-29 17.9 µM | KM12 21.3 µM | MDA-MB-435 18.4 µM | NCI-H226 20.7 µM | NCI/ADR-RES 20.6 µM | OVCAR-4 22.1 µM | OVCAR-8 16.4 µM | RPMI-8226 26.6 µM | SF-539 25.8 µM | SR 22.5 µM | T47D 18.1 µM | TK-10 29.8 µM | UACC-62 20.3 µM | UO-31 16 µM
